Reference: patent US8232407B2, “Nitrogenous heterocyclic compounds with insecticidal activity, and the preparation and use thereof” (East China University of Science and Technology, priority 2008, dated 2012)

Experiments:
Assay type in all cases: in vivo
Aphis craccivoral = assay: Insecticidal activities to aphids, immersion method; conditions: for Aphis craccivoral Mortality (%) 500 ppm: in vivo
Method in brief: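 Immersion assay: compound diluted from 10 g/L DMF stock to 500 ppm in 0.2 mL/L Triton X-100, sprout-feeding wingless adults dipped 5 s. Kept at 23° C, three repeats; 24 h mortality calculated relative to surviving Triton-treated controls.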

Nilaparvata lugens = assay: Insecticidal activities to plant hopper, spraying method; conditions: for Nilaparvata lugens Mortality (%) 500 ppm: in vivo
Method in brief: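 Spray test: acetone solutions of 500 down to 0.79 ppm, 2 ml per tumbler holding 10 planthoppers introduced 6 h earlier, triplicate, aqueous acetone as control. Mortality at 24 h calculated from survivors relative to control.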

[1] = test system: Pseudaletia separate Walker; assay: Insecticidal activities to armyworm, leaf dipping and feeding; conditions: for Pseudaletia separate Walker Mortality (%) 500 ppm: in vivo
Method: (§1) Mortality (%)=(the number of the survival aphis in control group−the number of the survival aphis in the treatment group)/the number of the survival aphis in control group×100%
(3): Insecticidal Activities to Armyworm
Armyworm (Pseudaletia separate Walker) was tested by the way of leaf dipping and feeding. The test compound was exactly formulated with acetone into solutions having concentrations of 500, 250, 100, 50, 25, 12.5, 6.25, 3.13 and 1.57 ppm, respectively. Aqueous acetone solution was used as control. Fresh maize leaves were immersed in the solution for 3 seconds, dried at room temperature, and fed to the tested insects. Each treatment was tested with 10 insects and repeated for 3 tumblers (3 times). The number of killed insects was counted after 24 hours to calculate the mortality according to the above mentioned formula.

Plutella xylostella = assay: Insecticidal activities to diamondback moth, feeding dipped leaves; conditions: for Plutella xylostella Mortality (%) 500 ppm: in vivo
Method: as §1
(4): Insecticidal Activities to Diamondback Moth
Diamondback moth (Plutella xylostella) was tested by the way of feeding dippedleaves. Fresh cabbage leaves were immersed in above mentioned solution for 3 seconds, dried at room temperature, and fed to the tested insects. Each treatment was tested with 10 insects and repeated for 3 tumblers (3 times), while water was used as control. The number of killed insects was counted after 24 hours to calculate the mortality according to the above mentioned formula.

Structure (SMILES) | Aphis craccivoral Mortality (%) 500 ppm (Aphis craccivoral) [%] | Nilaparvata lugens Mortality (%) 500 ppm (Nilaparvata lugens) [%] | Pseudaletia separate Walker Mortality (%) 500 ppm [1] [%] | Plutella xylostella Mortality (%) 500 ppm (Plutella xylostella) [%] | also measured
N#CC(=Cc1cccs1)C1=NCCN1Cc1ccc(Cl)nc1 [Compound 146] | 100 | 100 | 100 | 100 | –
O=[N+]([O-])C(=Cc1cc(Cl)cs1)C1=NCCN1Cc1ccc(Cl)nc1 [Compound 21] | 100 | 100 | 100 | 100 | –
C[N+]1=C(C(=Cc2ccc([N+](=O)[O-])o2)[N+](=O)[O-])N(Cc2ccc(Cl)nc2)CC1.[Cl-] [Compound 246] | 100 | 100 | 100 | 100 | –
CCc1ccc(C(C)=C(C2=NCCN2Cc2ccc(Cl)nc2)[N+](=O)[O-])o1 [Compound 115] | 93 | 100 | 79 | 96 | –
CC(=C(C1=NCCN1Cc1ccc(Cl)nc1)[N+](=O)[O-])c1ccc([N+](=O)[O-])s1 [Compound 117] | 83 | 88 | 77 | 86 | –
CC[N+]1=C(C(=Cc2ccoc2)[N+](=O)[O-])N(Cc2ccc(Cl)nc2)CC1.[Cl-] [Compound 286] | 100 | 100 | 100 | 100 | –
O=[N+]([O-])C(=Cc1ccoc1)C1=NCCN1Cc1ccccc1 [Compound 104] | 96 | 100 | 79 | 81 | –
CC(c1ccc(Cl)nc1)N1CCN=C1C(=Cc1ccc(Cl)s1)[N+](=O)[O-] (racemic) [Compound 130] | 100 | 100 | 100 | 76 | –
O=[N+]([O-])C(=Cc1cc(Br)co1)C1=NCCN1Cc1cnc(Cl)s1 [Compound 74] | 100 | 100 | 100 | 100 | –
O=[N+]([O-])C(=Cc1ccsc1)C1=NCCN1Cc1cnc(Cl)s1 [Compound 84] | 100 | 100 | 100 | 100 | –
O=[N+]([O-])C(=Cc1cc(Br)c(Br)o1)C1=NCCN1CC1CCOC1 (stereo not shown) [Compound 100] | 90 | 100 | 100 | 100 | –
CC(=C(C1=NCCN1Cc1ccc(Cl)nc1)[N+](=O)[O-])c1ccco1 [Compound 111] | 45 | 53 | 77 | 25 | –
O=[N+]([O-])C(=Cc1ccsc1)C1=NCCN1Cc1ccc(Cl)nc1 [Compound 17] | 100 | 100 | 100 | 100 | –
O=[N+]([O-])C(=Cc1cc(Cl)co1)C1=NCCN1Cc1ccc(Cl)nc1 [Compound 6] | 100 | 100 | 100 | 100 | –
N#CC(=Cc1sc(Cl)cc1Cl)C1=NCCN1Cc1ccc(Cl)nc1 [Compound 150] | – | – | – | – | Aphis craccivoral Mortality (%) (Aphis craccivoral; 500 ppm, immersion method): 95%; Nilaparvata lugens Mortality (%) (Nilaparvata lugens; 500 ppm, spraying method, counted after 24 hours): 100%; Pseudaletia separate Walker Mortality (%) ([1]; 500 ppm, maize leaf dipping and feeding, counted after 24 hours): 100%; Plutella xylostella Mortality (%) (Plutella xylostella; 500 ppm, feeding dipped cabbage leaves, counted after 24 hours): 100%
Cc1coc(C=C(C2=[N+](C)CCN2Cc2ccc(Cl)nc2)[N+](=O)[O-])c1.[Cl-] [Compound 256] | 100 | 100 | 100 | 100 | –

Structure (SMILES) | Aphis craccivoral Mortality (%) 500 ppm (Aphis craccivoral) [%] | Nilaparvata lugens Mortality (%) 500 ppm (Nilaparvata lugens) [%] | Pseudaletia separate Walker Mortality (%) 500 ppm [1] [%] | Plutella xylostella Mortality (%) 500 ppm (Plutella xylostella) [%] | also measured
CCN(Cc1ccc(Cl)nc1)C(=N\C)/C(=C\c1ccco1)[N+](=O)[O-] [Compound 151, N-((6-chloropyridin-3-yl)methyl)-N-ethyl-3-(furan-2-yl)-N′-methyl-2-nitro acrylamidine] | – | – | – | – | mortality at 500 ppm (Aphis craccivoral; Aphis, 24 h, read-out: Aphis craccivoral Mortality (%) 500 ppm): 76%; mortality at 500 ppm (Nilaparvata lugens; Nilaparvata lugens, 24 h, read-out: Nilaparvata lugens Mortality (%) 500 ppm): 87%; mortality at 500 ppm ([1]; Zea mays, foliar, 24 h, read-out: Pseudaletia separate Walker Mortality (%) 500 ppm): 86%; mortality at 500 ppm (Plutella xylostella; Plutella xylostella, in Brassica oleracea, 24 h, read-out: Plutella xylostella Mortality (%) 500 ppm): 79%
O=[N+]([O-])C(=Cc1cc(Br)c(Br)o1)C1=NCCN1Cc1cnc(Cl)s1 [Compound 77] | 100 | 100 | 100 | 100 | –
O=[N+]([O-])C(=Cc1ccc(Cl)o1)C1=NCCCN1Cc1ccc(Cl)nc1 [Compound 49] | 100 | 100 | 100 | 100 | –
O=[N+]([O-])C(=Cc1cc(Cl)cs1)C1=NCCN1Cc1cnc(Cl)s1 [Compound 88] | 100 | 100 | 100 | 100 | –
Cc1coc(C=C(C2=NCCN2Cc2ccc(Cl)nc2)[N+](=O)[O-])c1 [Compound 13] | 100 | 100 | 100 | 100 | –
N#CC(=Cc1cc(Br)c(Br)o1)C1=NCCN1Cc1ccc(Cl)nc1 [Compound 144] | 87 | 100 | 90 | 100 | –
N#CC(=Cc1ccsc1)C1=NCCN1Cc1ccc(Cl)nc1 [Compound 147] | 100 | 100 | 100 | 100 | –
C[N+]1=C(C(=Cc2ccsc2)[N+](=O)[O-])N(Cc2ccc(Cl)nc2)CC1.[Cl-] [Compound 260] | 90 | 92 | 80 | 89 | –
CC[N+]1=C(C(=Cc2ccc(Cl)s2)[N+](=O)[O-])N(Cc2ccc(Cl)nc2)CC1.[Cl-] [Compound 294] | 100 | 100 | 100 | 100 | –
O=[N+]([O-])C(=Cc1cc(Cl)c(Cl)o1)C1=NCCN1Cc1cnc(Cl)s1 [Compound 75] | 100 | 100 | 100 | 100 | –
O=[N+]([O-])C(=Cc1ccc(Br)s1)C1=NCCN1Cc1ccc(Cl)nc1 [Compound 20] | 100 | 100 | 100 | 100 | –
Cc1ccc(C=C(C2=[N+](C)CCN2Cc2ccc(Cl)nc2)[N+](=O)[O-])s1.[Cl-] [Compound 270] | 100 | 100 | 100 | 100 | –
O=[N+]([O-])C(=Cc1ccc(Cl)nc1)C1=NCCN1Cc1ccc(Cl)nc1 [Compound 40] | 45 | 44 | 67 | 56 | –
O=[N+]([O-])C(=Cc1ccc(Cl)s1)C1=NCCCN1Cc1ccc(Cl)nc1 [Compound 64] | 100 | 100 | 100 | 100 | –
C[N+]1=C(C(=Cc2oc(Cl)cc2Cl)[N+](=O)[O-])N(Cc2ccc(Cl)nc2)CC1.[Cl-] [Compound 252] | 100 | 100 | 100 | 100 | –
